According to US6855513B1 (priority 1999, dated 2005):

Legend:
qsc107 = test: Acyl-HSL induction of β-galactosidase in qsc107 mutant; type: cell-based, Pseudomonas aeruginosa; settings: qsc107, Class I; 3OC12-HSL 2 μM, C4-HSL 5 μM
qsc138 = test: Acyl-HSL induction of β-galactosidase in qsc138 mutant; type: cell-based, Pseudomonas aeruginosa; settings: qsc138, Class IV; 3OC12-HSL 2 μM, C4-HSL 5 μM
[1] = test system: qsc109 (Bacitracin synthetase 3); test: Acyl-HSL induction of β-galactosidase in qsc109 mutant; type: cell-based, Pseudomonas aeruginosa; settings: qsc109, Class II; 3OC12-HSL 2 μM, C4-HSL 5 μM
[2] = test system: qsc137 (Asparagine synthetase); test: Acyl-HSL induction of β-galactosidase in qsc137 mutant; type: cell-based, Pseudomonas aeruginosa; settings: qsc137, Class IV; 3OC12-HSL 2 μM, C4-HSL 5 μM
[3] = test system: qsc112A&B (Aculeacin A acylase); test: Acyl-HSL induction of β-galactosidase in qsc112A&B mutants; type: cell-based, Pseudomonas aeruginosa; settings: Class II, 3OC12-HSL 2 μM, C4-HSL 5 μM
qsc108 (ORF 5) = test: Acyl-HSL induction of β-galactosidase in qsc108 mutant; type: cell-based, Pseudomonas aeruginosa; settings: qsc108, Class II; 3OC12-HSL 2 μM, C4-HSL 5 μM
[4] = test system: qsc100 (Peptide synthetase); test: Acyl-HSL induction of β-galactosidase in qsc100 mutant; type: cell-based, Pseudomonas aeruginosa; settings: qsc100, Class I; 3OC12-HSL 2 μM, C4-HSL 5 μM
qsc106A&B = test: Acyl-HSL induction of β-galactosidase in qsc106A&B mutants; type: cell-based, Pseudomonas aeruginosa; settings: Class I, 3OC12-HSL 2 μM, C4-HSL 5 μM
qsc115 = test: Acyl-HSL induction of β-galactosidase in qsc115 mutant; type: cell-based, Pseudomonas aeruginosa; settings: qsc115, Class II; 3OC12-HSL 2 μM, C4-HSL 5 μM
[5] = test system: qsc111 (Pyoverdine synthetase D); test: Acyl-HSL induction of β-galactosidase in qsc111 mutant; type: cell-based, Pseudomonas aeruginosa; settings: qsc111, Class II; 3OC12-HSL 2 μM, C4-HSL 5 μM
qtc136 = test: Acyl-HSL induction of β-galactosidase in qtc136 mutant; type: cell-based, Pseudomonas aeruginosa; settings: qtc136, Class IV; 3OC12-HSL 2 μM, C4-HSL 5 μM
[6] = test system: qsc123 (9-Cis retinol dehydrogenase); test: Acyl-HSL induction of β-galactosidase in qsc123 mutant; type: cell-based, Pseudomonas aeruginosa; settings: qsc123, Class III; 3OC12-HSL 2 μM, C4-HSL 5 μM
[7] = test system: qsc124A&B (Pyoverdine synthetase D); test: Acyl-HSL induction of β-galactosidase in qsc124A&B mutants; type: cell-based, Pseudomonas aeruginosa; settings: Class III, 3OC12-HSL 2 μM, C4-HSL 5 μM
[8] = test system: qcs117 (ACP-like protein); test: Acyl-HSL induction of β-galactosidase in qcs117 mutant; type: cell-based, Pseudomonas aeruginosa; settings: qcs117, Class III; 3OC12-HSL 2 μM, C4-HSL 5 μM
qsc119 (RhlB) = test: Acyl-HSL induction of β-galactosidase in qsc119 mutant; type: cell-based, Pseudomonas aeruginosa; settings: qsc119, Class III; 3OC12-HSL 2 μM, C4-HSL 5 μM
[9] = test system: qsc126 (Pristanimycin I synthase 3 & 4); test: Acyl-HSL induction of β-galactosidase in qsc126 mutant; type: cell-based, Pseudomonas aeruginosa; settings: qsc126, Class III; 3OC12-HSL 2 μM, C4-HSL 5 μM
qsc103 = test: Acyl-HSL induction of β-galactosidase in qsc103 mutant; type: cell-based, Pseudomonas aeruginosa; settings: qsc103, Class I; 3OC12-HSL 2 μM, C4-HSL 5 μM
[10] = test system: qsc105 (FAD-binding protein); test: Acyl-HSL induction of β-galactosidase in qsc105 mutant; type: cell-based, Pseudomonas aeruginosa; settings: qsc105, Class I; 3OC12-HSL 2 μM, C4-HSL 5 μM
[11] = test system: qsc135 (Cytochrome C precursor); test: Acyl-HSL induction of β-galactosidase in qsc135 mutant; type: cell-based, Pseudomonas aeruginosa; settings: qsc135, Class IV; 3OC12-HSL 2 μM, C4-HSL 5 μM
[12] = test system: qsc113 (Trransmembrane protein); test: Acyl-HSL induction of β-galactosidase in qsc113 mutant; type: cell-based, Pseudomonas aeruginosa; settings: qsc113, Class II; 3OC12-HSL 2 μM, C4-HSL 5 μM
[13] = test system: qsc120 (Chloramphenicol resistance); test: Acyl-HSL induction of β-galactosidase in qsc120 mutant; type: cell-based, Pseudomonas aeruginosa; settings: qsc120, Class III; 3OC12-HSL 2 μM, C4-HSL 5 μM
[14] = test system: qsc110A&B (Pyoverdine synthetase D); test: Acyl-HSL induction of β-galactosidase in qsc110A&B mutants; type: cell-based, Pseudomonas aeruginosa; settings: Class II, 3OC12-HSL 2 μM, C4-HSL 5 μM
[15] = test system: qsc125 (Zeaxanthin synthesis); test: Acyl-HSL induction of β-galactosidase in qsc125 mutant; type: cell-based, Pseudomonas aeruginosa; settings: qsc125, Class III; 3OC12-HSL 2 μM, C4-HSL 5 μM
[16] = test system: qsc122A&B (Cytochrome p450); settings: Class III, 3OC12-HSL 2 μM, C4-HSL 5 μM
[17] = test system: qsc134 (Saframycin Mx1 synthetase A); test: Acyl-HSL induction of β-galactosidase in qsc134 mutant; type: cell-based, Pseudomonas aeruginosa; settings: qsc134, Class IV; 3OC12-HSL 2 μM, C4-HSL 5 μM
[18] = test system: qsc132A&B (Unknown (B. pertusis)); test: Acyl-HSL induction of β-galactosidase in qsc132A&B mutants; type: cell-based, Pseudomonas aeruginosa; settings: Class IV, 3OC12-HSL 2 μM, C4-HSL 5 μM
qsc127 = test: Acyl-HSL induction of β-galactosidase in qsc127 mutant; type: cell-based, Pseudomonas aeruginosa; settings: qsc127, Class III; 3OC12-HSL 2 μM, C4-HSL 5 μM
[19] = test system: qsc129A&B (Cellulose binding protein p40); test: Acyl-HSL induction of β-galactosidase in qsc129A&B mutants; type: cell-based, Pseudomonas aeruginosa; settings: Class III, 3OC12-HSL 2 μM, C4-HSL 5 μM
[20] = test system: qsc121 (3-Oxoacyl ACP synthase); test: Acyl-HSL induction of β-galactosidase in qsc121 mutant; type: cell-based, Pseudomonas aeruginosa; settings: qsc121, Class III; 3OC12-HSL 2 μM, C4-HSL 5 μM
[21] = test system: qsc128 (Hydrogen cyanide synthase HcnB); type: cell-based, Pseudomonas aeruginosa; settings: qsc128, Class III; 3OC12-HSL 2 μM, C4-HSL 5 μM
qsc101 = test: Acyl-HSL induction of β-galactosidase in qsc101 mutant; type: cell-based, Pseudomonas aeruginosa; settings: qsc101, Class I; 3OC12-HSL 2 μM, C4-HSL 5 μM

Compound | Signal response (β-galactosidase activity with signal(s) divided by activity without added signals), maximum (qsc107) | Signal response (β-galactosidase activity with signal(s) divided by activity without added signals), maximum (qsc138) | Signal response (β-galactosidase activity with signal(s) divided by activity without added signals), maximum [1] | Signal response (β-galactosidase activity with signal(s) divided by activity without added signals), maximum [2] | Signal response (β-galactosidase activity with signal(s) divided by activity without added signals), maximum [3] | Signal response (β-galactosidase activity with signal(s) divided by activity without added signals), maximum (qsc108 (ORF 5)) | Signal response (β-galactosidase activity with signal(s) divided by activity without added signals), maximum [4] | Signal response (β-galactosidase activity with signal(s) divided by activity without added signals), maximum (qsc106A&B) | Signal response (β-galactosidase activity with signal(s) divided by activity without added signals), maximum (qsc115) | Signal response (β-galactosidase activity with signal(s) divided by activity without added signals), maximum [5] | Signal response (β-galactosidase activity with signal(s) divided by activity without added signals), maximum (qtc136) | Signal response (β-galactosidase activity with signal(s) divided by activity without added signals), maximum [6] | Signal response (β-galactosidase activity with signal(s) divided by activity without added signals), maximum [7] | Signal response (β-galactosidase activity with signal(s) divided by activity without added signals), maximum [8] | Signal response (β-galactosidase activity with signal(s) divided by activity without added signals), maximum (qsc119 (RhlB)) | Signal response (β-galactosidase activity with signal(s) divided by activity without added signals), maximum [9] | Signal response (β-galactosidase activity with signal(s) divided by activity without added signals), maximum (qsc103) | Signal response (β-galactosidase activity with signal(s) divided by activity without added signals), maximum [10] | Signal response (β-galactosidase activity with signal(s) divided by activity without added signals), maximum [11] | Signal response (β-galactosidase activity with signal(s) divided by activity without added signals), maximum [12] | other results
CCCCCCCCCC(=O)CC(=O)N[C@H]1CCOC1=O [3OC12-HSL, N-(3-oxododecanoyl) homoserine lactone] | 44 | 3 | 13 | 1 | 15 | 13 | 65 | 9 | 4 | 11 | 7 | 14 | 35 | 22 | 9 | 3 | 85 | 40 | 3 | 5 | Signal response (β-galactosidase activity with signal(s) divided by activity without added signals), maximum [13]: 3; Signal response (β-galactosidase activity with signal(s) divided by activity without added signals), maximum [14]: 10; Signal response (β-galactosidase activity with signal(s) divided by activity without added signals), maximum [15]: 20; Signal response (β-galactosidase activity with signal(s) divided by activity without added signals), maximum [16]: 2; Signal response (β-galactosidase activity with signal(s) divided by activity without added signals), maximum [17]: 6; Signal response (β-galactosidase activity with signal(s) divided by activity without added signals), maximum [18]: 1; Signal response (β-galactosidase activity with signal(s) divided by activity without added signals), maximum (qsc127): 5; Signal response (β-galactosidase activity with signal(s) divided by activity without added signals), maximum [19]: 15; Signal response (β-galactosidase activity with signal(s) divided by activity without added signals), maximum [20]: 13; Signal response (β-galactosidase activity with signal(s) divided by activity without added signals), maximum [21]: 19; Signal response (β-galactosidase activity with signal(s) divided by activity without added signals), maximum (qsc101): 145
CCCC(=O)N[C@H]1CCOC1=O [C4-HSL, butanoyl-HSL] | 2 | 5 | 1 | 1 | 1 | 1 | 3 | 1 | 1 | 1 | 3 | 28 | 50 | 22 | 7 | 5 | 1 | 1 | 1 | 1 | Signal response (β-galactosidase activity with signal(s) divided by activity without added signals), maximum [13]: 7; Signal response (β-galactosidase activity with signal(s) divided by activity without added signals), maximum [14]: 1; Signal response (β-galactosidase activity with signal(s) divided by activity without added signals), maximum [15]: 65; Signal response (β-galactosidase activity with signal(s) divided by activity without added signals), maximum [16]: 10; Signal response (β-galactosidase activity with signal(s) divided by activity without added signals), maximum [17]: 1; Signal response (β-galactosidase activity with signal(s) divided by activity without added signals), maximum [18]: 1; Signal response (β-galactosidase activity with signal(s) divided by activity without added signals), maximum (qsc127): 2; Signal response (β-galactosidase activity with signal(s) divided by activity without added signals), maximum [19]: 1; Signal response (β-galactosidase activity with signal(s) divided by activity without added signals), maximum [20]: 27; Signal response (β-galactosidase activity with signal(s) divided by activity without added signals), maximum [21]: 12; Signal response (β-galactosidase activity with signal(s) divided by activity without added signals), maximum (qsc101): 1
